Results reported in ChEMBL document CHEMBL1136993, “Efficient chemoenzymatic synthesis, cytotoxic evaluation, and SAR of epoxysterols” (J Med Chem, 2009).

Tests used:
HT-29 = assay: Cytotoxicity against human HT-29 cells after 48 hrs by Alamar Blue assay; type: functional, cell-based; details: HT-29, 48 h
LAMA-84 = assay: Cytotoxicity against human LAMA-84 cells after 48 hrs by Alamar Blue assay; type: functional, cell-based; details: LAMA-84, 48 h
BJ = assay: Cytotoxicity against human BJ cells after 48 hrs by Alamar Blue assay; type: cell-based

SMILES | IC50 (HT-29) [µM] | IC50 (LAMA-84) [µM] | IC50 (BJ) [µM]
CC(C)CCC[C@@H](C)[C@H]1CC[C@H]2[C@@H]3CC[C@@]45O[C@@H]4[C@@H](O)CC[C@]5(C)[C@H]3CC[C@]12C | 61.9 |  | 
CC(C)CCC[C@@H](C)[C@H]1CC[C@H]2[C@@H]3CC[C@]45O[C@H]4[C@@H](O)CC[C@]5(C)[C@H]3CC[C@]12C | 22.6 | 11.2 | 31.4
CC(C)CCC[C@@H](C)[C@H]1CC[C@H]2[C@@H]3[C@@H]4O[C@@]45C[C@@H](O)CC[C@]5(C)[C@H]3CC[C@]12C | 40.9 |  | 
CC(C)CCC[C@@H](C)[C@H]1CC[C@H]2[C@@H]3C[C@@H]4O[C@@]45[C@@H](O)[C@@H](O)CC[C@]5(C)[C@H]3CC[C@]12C | 38.2 |  | 
CC(C)CCC[C@@H](C)[C@H]1CC[C@H]2[C@@H]3C[C@H]4O[C@]45[C@@H](O)[C@@H](O)CC[C@]5(C)[C@H]3CC[C@]12C | 17.7 | 8 | 20.4
CC(C)CCC[C@@H](C)[C@H]1CC[C@H]2[C@@H]3[C@H](O)C=C4C[C@@H](O)CC[C@]4(C)[C@H]3CC[C@]12C | 15.5 |  | 
CC(C)CCC[C@@H](C)[C@H]1CC[C@H]2[C@@H]3[C@H](O)[C@@H]4O[C@@]45C[C@@H](O)CC[C@]5(C)[C@H]3CC[C@]12C | 33.8 |  | 
CC(C)CCC[C@@H](C)[C@H]1CC[C@H]2[C@@H]3CC=C4[C@@H](O)[C@@H](O)CC[C@]4(C)[C@H]3CC[C@]12C | > 50 |  | 
CC(C)CCC[C@@H](C)[C@H]1CC[C@H]2[C@@H]3C[C@@H]4O[C@@]45C[C@@H](O)CC[C@]5(C)[C@H]3CC[C@]12C | > 50 |  | 
CC(C)CCC[C@@H](C)[C@H]1CC[C@H]2[C@@H]3C[C@H]4O[C@]45C[C@@H](O)CC[C@]5(C)[C@H]3CC[C@]12C | 37.6 |  | 
CC(C)CCC[C@@H](C)[C@H]1CC[C@H]2[C@@H]3[C@@H](O)[C@H]4O[C@]45C[C@@H](O)CC[C@]5(C)[C@H]3CC[C@]12C | 8.3 | 7 | 19.5
CC(C)CCC[C@@H](C)[C@H]1CC[C@H]2[C@@H]3[C@@H](O)C=C4C[C@@H](O)CC[C@]4(C)[C@H]3CC[C@]12C | 6.4 | 4.8 | 20.1
CC(C)CCC[C@@H](C)[C@H]1CC[C@H]2[C@@H]3[C@@H](O)[C@@H]4O[C@@]45C[C@@H](O)CC[C@]5(C)[C@H]3CC[C@]12C | 13.3 | 4.1 | 13.4
CC(C)CCC[C@@H](C)[C@H]1CC[C@H]2[C@@H]3CCC4=C[C@@H](O)CC[C@]4(C)[C@H]3CC[C@]12C | > 50 |  | 
CC(=O)O[C@H]1CC[C@]2(C)[C@H]3CC[C@]4(C)[C@@H]([C@H](C)CCCC(C)C)CC[C@H]4[C@@H]3C[C@H]3O[C@]32[C@H]1O | 28.2 |  | 
CC(=O)O[C@H]1[C@@H](O)CC[C@]2(C)[C@H]3CC[C@]4(C)[C@@H]([C@H](C)CCCC(C)C)CC[C@H]4[C@@H]3C[C@H]3O[C@@]312 | 15.9 | 8.1 | 
CC(=O)O[C@H]1CC[C@@]2(C)C(=C[C@H](O)[C@H]3[C@@H]4CC[C@H]([C@H](C)CCCC(C)C)[C@@]4(C)CC[C@@H]32)C1 | 29.4 |  | 
CC(C)CCC[C@@H](C)[C@H]1CC[C@H]2[C@@H]3CC=C4C[C@@H](O)CC[C@]4(C)[C@H]3CC[C@]12C [CHOLESTEROL] | > 50 |  | 
COc1cccc2c1C(=O)c1c(O)c3c(c(O)c1C2=O)C[C@@](O)(C(=O)CO)C[C@@H]3O[C@H]1C[C@H](N)[C@H](O)[C@H](C)O1 [DOXORUBICIN] | 1.15 | 0.76 | 2.7
